# Reference: patent US20130012466A1 (priority 2006, published 2013)
# Read-outs that look alike come from different tables or passages of the source.
# How the values were obtained:
# SF-268 = test: Cytotoxicity assay (cell titer-glo and calcein AM), SF-268; conditions: SF-268, % error in parentheses
# A549 = test: Cytotoxicity assay (cell titer-glo and calcein AM), A549; conditions: A549, % error in parentheses
# NCI-H460 = test: Cytotoxicity assay (cell titer-glo and calcein AM), NCI-H460; conditions: NCI-H460, % error in parentheses
# ADR-RES = test: Cytotoxicity assay (cell titer-glo and calcein AM), ADR-RES; conditions: NCI/ADR RES, % error in parentheses
# Du145 = test: Cytotoxicity assay (cell titer-glo and calcein AM), Du145; conditions: Du145, % error in parentheses
# [1] = test system: mouse mammary normal epithelial control cell line; test: Cytotoxicity assay, normal control cell line
# Hep3B = test: Cytotoxicity assay (cell titer-glo and calcein AM), Hep3B; conditions: Hep 3B, % error in parentheses
# MCF7 = test: Cytotoxicity assay (cell titer-glo and calcein AM), MCF7
# SK-OV-3 = test: Cytotoxicity assay (cell titer-glo and calcein AM), SK-OV-3; conditions: SK-OV-3, % error in parentheses
# [2] = read-out: Cytotoxicity IC50, SF-268, CTG, CTG (cell titer-glo) readout
# [3] = read-out: Cytotoxicity IC50, SF-268, calcein, calcein AM readout
# [4] = read-out: Cytotoxicity IC50, A549, CTG, CTG (cell titer-glo) readout
# [5] = read-out: Cytotoxicity IC50, A549, calcein, calcein AM readout
# [6] = read-out: Cytotoxicity IC50, NCI-H460, CTG, CTG (cell titer-glo) readout
# [7] = read-out: Cytotoxicity IC50, NCI-H460, calcein, calcein AM readout
# [8] = read-out: Cytotoxicity IC50, NCI/ADR RES, CTG, CTG (cell titer-glo) readout
# [9] = read-out: Cytotoxicity IC50, NCI/ADR RES, calcein, calcein AM readout
# [10] = read-out: Cytotoxicity IC50, Du145, CTG, CTG (cell titer-glo) readout
# [11] = read-out: Cytotoxicity IC50, Du145, calcein, calcein AM readout
# [12] = read-out: Cytotoxicity IC50, NmuMG, CTG, CTG (cell titer-glo) readout, % error in parentheses
# [13] = read-out: Cytotoxicity IC50, NmuMG, calcein, calcein AM readout, % error in parentheses
# [14] = read-out: Cytotoxicity IC50, Hep 3B, CTG, CTG (cell titer-glo) readout
# [15] = read-out: Cytotoxicity IC50, Hep 3B, calcein, calcein AM readout
# [16] = read-out: Cytotoxicity IC50, MCF7, CTG, CTG (cell titer-glo) readout, % error in parentheses
# [17] = read-out: Cytotoxicity IC50, MCF7, calcein, calcein AM readout, % error in parentheses
# [18] = read-out: Cytotoxicity IC50, SK-OV-3, CTG, CTG (cell titer-glo) readout
# [19] = read-out: Cytotoxicity IC50, SK-OV-3, calcein, calcein AM readout
Compound,IC50 (SF-268; [2]),IC50 (SF-268; [3]),IC50 (A549; [4]),IC50 (A549; [5]),IC50 (NCI-H460; [6]),IC50 (NCI-H460; [7]),IC50 (ADR-RES; [8]),IC50 (ADR-RES; [9]),IC50 (Du145; [10]),IC50 (Du145; [11]),"IC50 [1, 12]","IC50 [1, 13]",IC50 (Hep3B; [14]),IC50 (Hep3B; [15]),IC50 (MCF7; [16]),IC50 (MCF7; [17]),IC50 (SK-OV-3; [18]),IC50 (SK-OV-3; [19])
"COc1cc2c(c(OC)c1OC)-c1ccc(OC)c(=O)cc1[C@@H](NC(=O)CN(OC)[C@@H]1OC[C@@H](O)[C@H](O)[C@@H]1O)CC2 [Col1, D-lyxoside]",3.86 µM,4 µM,2.91 µM,1.21 µM,4.51 µM,3.93 µM,2.63 µM,1.91 µM,1.97 µM,2 µM,> 10 µM,6.49 µM,3.5 µM,3.69 µM,1.9 µM,1.33 µM,4 µM,4 µM
"COc1cc2c(c(OC)c1OC)-c1ccc(OC)c(=O)cc1[C@@H](NC(=O)CN(OC)[C@@H]1O[C@H](C)[C@@H](O)[C@H](O)[C@H]1O)CC2 [Col2, 6-deoxy-D-glucoside]",8.43 µM,> 10 µM,8.78 µM,7.94 µM,7.24 µM,5.42 µM,> 10 µM,> 10 µM,> 10 µM,> 7.79 µM,> 10 µM,> 10 µM,> 10 µM,> 10 µM,4.86 µM,4.77 µM,9.86 µM,> 10 µM
"COc1cc2c(c(OC)c1OC)-c1ccc(OC)c(=O)cc1[C@@H](NC(=O)CN(OC)[C@@H]1O[C@H](CO)[C@@H](O)C[C@H]1O)CC2 [Col3, 3-deoxy-D-glucoside]",5.32 µM,8.42 µM,9.91 µM,> 10 µM,8.37 µM,1.96 µM,> 10 µM,> 10 µM,> 10 µM,6.56 µM,> 10 µM,> 10 µM,5.16 µM,4.07 µM,3.25 µM,> 10 µM,4.42 µM,4.21 µM
"COc1cc2c(c(OC)c1OC)-c1ccc(OC)c(=O)cc1[C@@H](NC(=O)CN(OC)[C@@H]1OC[C@@H](O)[C@H](O)[C@H]1O)CC2 [Col4, D-xyloside]",8.26 µM,8.93 µM,> 10 µM,> 10 µM,> 10 µM,> 10 µM,> 10 µM,> 10 µM,> 10 µM,> 10 µM,> 10 µM,> 10 µM,> 10 µM,> 3.35 µM,> 10 µM,> 10 µM,> 10 µM,> 10 µM
"COc1cc2c(c(OC)c1OC)-c1ccc(OC)c(=O)cc1[C@@H](NC(=O)CN(OC)[C@@H]1OC[C@@H](O)[C@@H](O)[C@H]1O)CC2 [Col5, D-riboside]",5.01 µM,4.59 µM,> 10 µM,> 10 µM,5.06 µM,5.76 µM,4.84 µM,5.06 µM,> 10 µM,6.78 µM,> 10 µM,> 10 µM,9.86 µM,6.52 µM,2.84 µM,2.88 µM,> 10 µM,> 10 µM
"COc1cc2c(c(OC)c1OC)-c1ccc(OC)c(=O)cc1C(NC(=O)CN(OC)C1OCC(O)C(O)C1O)CC2 [Col7, L-lyxoside]",4.97 µM,4.9 µM,> 10 µM,9.76 µM,7.08 µM,5.69 µM,> 10 µM,> 10 µM,> 10 µM,4.73 µM,> 10 µM,> 10 µM,4.89 µM,4.74 µM,2.65 µM,3.99 µM,> 10 µM,5.04 µM
"COc1cc2c(c(OC)c1OC)-c1ccc(OC)c(=O)cc1[C@@H](NC(=O)CN(OC)[C@@H]1O[C@H](C)[C@H](O)[C@H](O)[C@H]1O)CC2 [Col9, D-fucoside]",> 10 µM,> 10 µM,> 10 µM,> 10 µM,> 10 µM,> 10 µM,> 10 µM,> 10 µM,> 10 µM,> 9.14 µM,> 10 µM,> 10 µM,> 10 µM,> 10 µM,> 9.96 µM,> 8.75 µM,> 10 µM,> 7.83 µM
